Where two headings read alike, the source gives them in different places. Blank lines part the entries; values can stand above or below the molecule they belong to.
Experiments:
[1] = system: caspase-3 and -7 in the Jurkat cell line; set-up: method as in PMID 17088067; conditions: after 5 h; cited from earlier work
[2] = system: JAr cells; experiment: Crystal violet cell viability assay; type: cell-based; conditions: Homo sapiens
Description: (§1) For cell assays, the D. orbita fractions were prepared fresh on the day of the experiment by dissolving in dimethyl sulfoxide (DMSO; 100%) at 100× the final concentration. These were diluted to a range of working concentrations (0.001–0.5 mg/mL) in complete cell assay medium to give a final working concentration per well of 1% DMSO. All samples were filtered through a […] (Sartorius) filter before use.
(§2) The primary-derived granulosa cells, along with the KGN, JAr and OVCAR-3 cell lines (10,000 cells per well) were plated into sterile white (opaque) 96-well plates (Interpath) and clear sterile 96-well plates (Interpath) in 0.1 mL per well of complete cell culture medium for 24 h (granulosa, KGN and OVCAR-3 cells) and 2 h (for JAr cells) to allow cell adherence. Standard curves of 0–40,000 cells per well (primary granulosa cells) and 0–80,000 cells per well (for KGN, JAr and OVCAR-3 cells) in six replicate wells were plated into clear 96-well plates, alongside the test plates. After the initial cell adherence period, spent media (media deficient of nutrients and serum) were discarded and primary-derived granulosa, KGN, JAr and OVCAR-3 cells were treated with the two D. orbita fractions at concentrations of 0.005, 0.01, 0.05, 0.1, and 0.5 mg/mL in a final volume of 0.1 mL per well in triplicate wells, for 4 and 24 h at 37 °C + 5% CO2. 1 h prior to the end of eachincubation period two positive controls were added; one for apoptosis (1 μg/mL DNase I), and the second for necrosis (2 μL per well of a cell lysis buffer; Promega). This experiment was repeated on three separate occasions (n = 3).
(§3) After 4 and 24 h exposure to D. orbita fractions in clear 96-well plates, media and all dead unattached cells were removed. The remaining adherent cells were rinsed with sterile 1× PBS and the crystal violet assay was performed. The crystal violet assay is a colourmetric assay in which only the nuclei of live cells take up the crystal violet stain (0.5%). The absorbance in the wells of the crystal violet plates were read on an automatic spectrophotometer at 570 nm, with reference absorbance 630 nm using KC Junior Software. This assay was repeated on three separate occasions (n = 3).

[3] = system: KGN cells; experiment: Crystal violet cell viability assay; type: cell-based; conditions: Homo sapiens
Description: as §1, §2, §3

[4] = system: OVCAR-3 cells; experiment: Crystal violet cell viability assay; type: cell-based; conditions: Homo sapiens, OVCAR-3, crystal violet
Description: as §1, §2, §3

[5] = system: primary-derived human reproductive granulosa cells (HGC); experiment: Crystal violet cell viability assay; type: cell-based
Description: as §1, §2, §3

[6] = system: JAr cells; experiment: MTT cell viability assay; type: cell-based; conditions: Homo sapiens
Description: as §1, §2
(§4) After 4, 24, 48 and 72 h exposure to D. orbita fractions in clear 96-well plates, media and all dead unattached cells were removed. The remaining adherent cells were rinsed with sterile 1× PBS and the MTT assay was performed. The MTT assay measures the reduction of a yellow substrate to formazan, a purple precipitate, by the mitochondrial succinate dehydrogenase enzymes. A solution of 0.5 mg/mL MTT (was added to wells in a final volume of 0.1 mL. The plates were then incubated for 1 h (JAr cells) and 18 h (KGN, OVCAR-3 and GC cells) at 37 °C and 5% CO2. At the end of the incubation period, 80 μL/well 20% SDS in 0.02 M HCl was added and plate was incubated for a further 1 h at room temperature in the dark. The absorbance was the measured at 570 nm, with reference absorbance 630 nm, using an automatic spectrophotometer using KC Junior software. This assay was repeated on three separate occasions (n = 3).

[7] = system: primary-derived human reproductive granulosa cells (HGC); experiment: MTT cell viability assay; type: cell-based; conditions: for IC50: Homo sapiens, HGC, MTT
Description: as §1, §2, §4

[8] = system: KGN cells; experiment: MTT cell viability assay; type: cell-based, human
Description: as §1, §2, §4

[9] = system: OVCAR-3 cells; experiment: MTT cell viability assay; type: cell-based, human; conditions: OVCAR-3, MTT
Description: as §1, §2, §4

[10] = system: primary-derived human reproductive granulosa cells (HGC); experiment: LDH membrane integrity assay (necrosis); type: cell-based
Description: as §2
(§5) After 4 and 24 h exposure to the D. orbita fractions in opaque 96-well plates, a combined membrane integrity and caspase 3/7 assay were performed on the primary-derived granulosa cells and KGN cells. The CytoTox-ONE Homogeneous Membrane Integrity Assay kit (Promega) was applied according to the manufacturer’s instructions. After the fluorescence was read at 535EX/590EM, the Caspase-Glo 3/7® assay (Promega) was applied to the primary granulosa cells and KGN cells according to the manufacturer’s instructions for1h and the plates were read on full light to capture total luminescence. The LDH-membrane integrity assay alone was performed on the JAr and OVCAR-3 cells using the CytoTox-ONE Homogeneous Membrane Integrity Assay kit (Promega). This assay was repeated on three separate occasions (n = 3).

[11] = system: JAr cells; experiment: LDH membrane integrity assay (necrosis); type: cell-based, human
Description: as §2, §5

[12] = system: KGN cells; experiment: LDH membrane integrity assay (necrosis); type: cell-based, human
Description: as §2, §5

[13] = system: OVCAR-3 cells; experiment: LDH membrane integrity assay (necrosis); type: cell-based, human
Description: as §2, §5

[14] = system: caspase-3 and -7 activity in HGC; experiment: Caspase-Glo 3/7 assay; type: cell-based, human; conditions: 4 h treatment
Description: as §2, §5

[15] = system: caspase-3 and -7 activity in KGN cells; experiment: Caspase-Glo 3/7 assay; type: cell-based, human; conditions: for concentration at which caspase-3 and -7 activity (apoptosis) significantly increased: 4 h treatment
Description: as §2, §5

[16] = system: primary-derived human reproductive granulosa cells (HGC); experiment: TUNEL staining (apoptosis); type: cell-based; conditions: for TUNEL positive cells: 4 h, 0.05 mg/mL; for TUNEL labelled cells: 24 h, 0.005 mg/mL
Description: (§6) Primary-derived human granulosa cells and KGN cells were plated into Nunc Lab-Tek II CC2 Chamber Slides at 30,000 cells per chamber well in a final volume of 0.3 mL of DMEM/F12 + 10% FBS complete cell culture medium and incubated for 24 h at 37 °C + 5% CO2 to allow cell attachment to slides. Spent media (media deficient of nutrients and serum) and non-viable and non-adherent cellswere discarded and replaced with the D. orbita fractions at concentrations of 0.005, 0.01 and 0.05 mg/mL in a final volume of 0.3 mL of DMEM/F12 + 10% medium. A medium-only and a 1% DMSO control were also added before incubation for 4 and 24 h at 37 °C + 5% CO2. This experiment was repeated on three separate occasions (n = 3). The supernatant was removed and the cells rinsed with PBS before fixation with 4% paraformaldehyde for 25 min at room temperature. The DeadEnd™ Fluorometric TUNEL System (Promega) was performed as recommended by the manufacturer. Briefly the cells were treated with 0.2% Triton X-100 for 5 min, to permeablize the cells. The cells were rinsed in PBS before the addition of 50 μL of rTdT incubation buffer (Promega) at 37 °C for 1 h, protected from light. Cells were rinsed in 2× sodium chloride and sodium citratesolution (Promega) for 15 min at room temperature (25 °C) then rinsed again with PBS. The cells were counter-stained with 1 μg/mL propidium iodide (PI). A separate positive control slide of 1 μg/mL DNase I, and a negative control slide of buffer without rTdT, was prepared in conjunction with treatment slides. Cells were examined immediately and photographed at 200 and 400× magnification using a Fluorescence Olympus BX50 Microscope with filter Chroma 31001 at excitation 450–495 nm, Dichroic 505 and emission 515–555 nm for the green fluorescein of TUNEL and Chroma 31002 at excitation 515–550 nm, Dichroic 565 and emission 575–615 nm for the red fluorescence of the PI staining. Photomicrographs of four fields of view were taken for each treatment in each repeat of theassay and the number of TUNEL positive nuclei, stained bright green, were calculated as a fraction of the total number of PI stained nuclei, stained bright red, in each image. The average of the four fields was then calculated.

[17] = system: KGN cells; experiment: TUNEL staining (apoptosis); type: cell-based, human; conditions: for TUNEL positive cells: 4 h, 0.05 mg/mL; for TUNEL labelled cells: 24 h, 0.005 mg/mL
Description: as §6

[18] = system: U937 lymphoma cell line; conditions: U937, 4 h exposure, tyrindoleninone in an impure extract; read-out: concentration giving 50% reduction in cell viability; cited from earlier work
[19] = system: untransformed human mononuclear cells (MNC); set-up: method as in PMID 19491143, PMID 17088067; conditions: in vitro, cited from earlier work
[20] = system: MCF-7 breast carcinoma cells; set-up: method as in PMID 19491143; conditions: MCF-7, 4 h exposure, tyrindoleninone in an impure extract; read-out: concentration giving 50% reduction in cell viability; cited from earlier work
[21] = system: CaCo2 colon carcinoma cells; set-up: method as in PMID 19491143; conditions: CaCo2, 4 h exposure, tyrindoleninone in an impure extract; read-out: concentration giving 50% reduction in cell viability; cited from earlier work
[22] = system: lymphoma cell; set-up: method as in PMID 17088067; conditions: 1 h exposure; read-out: concentration giving (predicted) 50% reduction in lymphoma cell viability; cited from earlier work
[23] = Homo sapiens, OVCAR-3, 4 h, 4 h
[24] = Homo sapiens, OVCAR-3, 24 h, 24 h
[25] = Homo sapiens, OVCAR-3, 48 h, 48 h
[26] = Homo sapiens, OVCAR-3, 72 h, 72 h
[27] = exposure time not stated at the place (4 and 24 h tested)

Structure (SMILES): O=C1Nc2c(cc(Br)c(Br)c2Br)C1=O [5,6,7-tribromoisatin]
concentration activating caspase-3 and -7 [1]: 8 µM

IC50 ([4]; 4 h): 446 µM
IC50 ([4]; 24 h): 268 µM
IC50 [9, 23]: 402 µM
IC50 [9, 24]: 446 µM
IC50 [9, 25]: 89 µM
IC50 [9, 26]: 22 µM
IC50 ([9]; 72 h): < 22 µM
Structure (SMILES): O=C1Nc2cc(Br)ccc2C1=O [6-Bromoisatin, 6-bromoisatin]
IC50 ([2]; 4 h): 223 µM
IC50 ([2]; 24 h): 178 µM
IC50 ([3]; 4 h): 892 µM
IC50 ([3]; 24 h): 223 µM
IC50 ([5]; 4 h): > 2.23 mM
IC50 ([5]; 24 h): > 2.23 mM
IC50 ([6]; 4 h): 223 µM
IC50 ([6]; 24 h): 446 µM
IC50 ([6]; 48 h): 446 µM
IC50 ([7]; 4 h): > 4.46 mM
IC50 ([7]; 24 h): > 4.46 mM
IC50 ([7]; 48 h): 1.78 mM
IC50 ([7]; 72 h): 2.23 mM
IC50 ([8]; 72 h): < 22 µM
IC50 ([8]; Homo sapiens, 4 h): 178 µM
IC50 ([8]; Homo sapiens, 24 h): 446 µM
IC50 ([8]; Homo sapiens, 48 h): 22 µM
IC50 ([8]; Homo sapiens, 72 h): 22 µM
concentration required to cause LDH release (necrosis) ([10]; 4 h exposure): 2232 µM
concentration required to cause LDH release (necrosis) ([10]; 24 h exposure): 2232 µM
concentration at which LDH release significantly increased [11, 27]: 446 µM
concentration at which LDH release significantly increased [12, 27]: 446 µM
concentration at which LDH release significantly increased ([13]; OVCAR-3, exposure time not stated at the place (4 and 24 h tested)): 446 µM
concentration at which caspase-3 and -7 activity was detected [14]: 0.1 mg/mL
concentration at which caspase-3 and -7 activity (apoptosis) significantly increased [15]: 22 µM
change of caspase-3 and 7 activity ([15]; 24 h, 22–2232 µM (0.005–0.5 mg/mL), dose-dependent): significantly decreased
TUNEL positive cells [16]: 27%
TUNEL labelled cells [16]: 10%
TUNEL positive cells [17]: 58%
TUNEL labelled cells [17]: 53%

IC50 ([4]; 4 h): 313 µM
IC50 ([4]; 24 h): 352 µM
IC50 values fold lower for all three reproductive cancer cell lines than for the HGC ([7]; after 24, 48 and 72 h treatment, KGN, JAr, OVCAR-3 vs HGC): approximately 10 fold
IC50 [9, 23]: 156 µM
IC50 [9, 24]: 234 µM
IC50 [9, 25]: 31 µM
IC50 [9, 26]: < 20 µM
Structure (SMILES): CSC1=Nc2cc(Br)ccc2C1=O [Tyrindoleninone, tyrindoleninone]
IC50 ([2]; 4 h): 234 µM
IC50 ([2]; 24 h): 195 µM
IC50 ([3]; 4 h): 156 µM
IC50 ([3]; 24 h): 156 µM
IC50 ([5]; 4 h): > 1.95 mM
IC50 ([5]; 24 h): > 1.95 mM
IC50 ([6]; 4 h): 39 µM
IC50 ([6]; 24 h): 117 µM
IC50 ([6]; 48 h): 78 µM
IC50 ([7]; 4 h): 3.52 mM
IC50 ([7]; 24 h): 1.56 mM
IC50 ([7]; 48 h): 1.56 mM
IC50 ([7]; 72 h): 1.56 mM
IC50 ([8]; Homo sapiens, 4 h): 39 µM
IC50 ([8]; Homo sapiens, 24 h): 78 µM
IC50 ([8]; Homo sapiens, 48 h): 20 µM
IC50 ([8]; Homo sapiens, 72 h): < 20 µM
LDH released (fluorescence 535EX/590EM) ([10]; 4 h, 1953 µM (0.5 mg/mL)): 876 ± 1084
concentration required to cause LDH release (necrosis) ([10]; 4 h exposure): 1953 µM
concentration required to cause LDH release (necrosis) ([10]; 24 h exposure): 1953 µM
concentration at which necrosis (LDH release) was detected ([11]; 4 h exposure): 195 µM
LDH released (fluorescence 535EX/590EM) ([12]; 4 h, 1953 µM (0.5 mg/mL)): 1612 ± 771
concentration required to cause LDH release (necrosis) ([12]; 4 h exposure): 1953 µM
concentration required to cause LDH release (necrosis) ([12]; 24 h exposure): 195 µM
concentration at which necrosis (LDH release) was detected ([13]; OVCAR-3, 4 h exposure): 391 µM
concentration at which caspase-3 and -7 activity (apoptosis) was noted [14]: 391 µM
concentration at which caspase-3 and -7 activity (apoptosis) significantly increased [15]: 20 µM
TUNEL positive cells [16]: 31%
TUNEL labelled cells [16]: 16%
TUNEL positive cells [17]: 66%
TUNEL labelled cells [17]: 62%
IC50 [18]: 391 µM
IC50 ([19]; 1 h exposure, read-out: IC50): 195 µM
IC50 [19]: 50 µg/mL
IC50 [20]: 391 µM
IC50 [21]: 391 µM
IC50 [22]: 4 µM
